Values of other authors as cited in US8877445B2, “Methods for identification of tumor phenotype and treatment” (Intelligent Oncotherapeutics, Inc., priority 2008, dated 2014).
Where no end group is shown, it is not given here. [ ]: non-standard residue; d: D form.

Key:
patients [1] = conditions: clinical phase I trial
patients [2] = tested on: patients
[3] = tested on: subcutaneous human tumor xenografts; conditions: for mitotic accumulation and apoptosis in xenografts / tolerability of efficacious doses: mouse, in vivo; for tolerability of efficacious doses: po; for tumor growth: oral administration (MLN8237: repeated) at well tolerated doses
aurora B = aurora B (Homo sapiens, UniProt Q96GD4); conditions: at efficacious concentrations
aurora B, sequence (Q96GD4 whole entry): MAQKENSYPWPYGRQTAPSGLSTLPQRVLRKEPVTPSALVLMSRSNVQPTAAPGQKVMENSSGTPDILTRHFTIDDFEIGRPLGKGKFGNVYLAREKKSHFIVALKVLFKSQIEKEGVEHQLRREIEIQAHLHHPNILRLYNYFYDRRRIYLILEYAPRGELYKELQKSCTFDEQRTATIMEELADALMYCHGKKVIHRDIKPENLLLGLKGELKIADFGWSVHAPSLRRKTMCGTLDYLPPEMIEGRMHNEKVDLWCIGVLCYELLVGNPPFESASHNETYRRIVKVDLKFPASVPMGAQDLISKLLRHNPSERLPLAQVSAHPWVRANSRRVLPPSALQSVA

[4] = tested on: cultured human tumor cells
[5] = in vivo
Aurora A [6] = biological target: T1, Aurora A (Homo sapiens, UniProt O14965); conditions: in vitro
T1 sequence (O14965 whole entry): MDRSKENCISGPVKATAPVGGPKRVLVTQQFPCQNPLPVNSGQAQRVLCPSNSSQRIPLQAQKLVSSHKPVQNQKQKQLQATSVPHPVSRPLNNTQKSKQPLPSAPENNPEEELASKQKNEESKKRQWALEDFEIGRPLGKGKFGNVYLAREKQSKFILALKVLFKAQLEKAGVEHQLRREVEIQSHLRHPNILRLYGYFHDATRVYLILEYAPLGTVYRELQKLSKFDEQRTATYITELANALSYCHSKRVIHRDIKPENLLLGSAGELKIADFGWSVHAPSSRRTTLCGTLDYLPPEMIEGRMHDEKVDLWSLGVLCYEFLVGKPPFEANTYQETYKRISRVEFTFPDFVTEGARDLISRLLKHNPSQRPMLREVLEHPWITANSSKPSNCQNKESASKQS

Aurora A [7] = biological target: T1, Aurora A; conditions: cultured cells
FOXM1 = biological target: T2, FOXM1 (Homo sapiens, UniProt Q08050)
T2 sequence (Q08050 1-763): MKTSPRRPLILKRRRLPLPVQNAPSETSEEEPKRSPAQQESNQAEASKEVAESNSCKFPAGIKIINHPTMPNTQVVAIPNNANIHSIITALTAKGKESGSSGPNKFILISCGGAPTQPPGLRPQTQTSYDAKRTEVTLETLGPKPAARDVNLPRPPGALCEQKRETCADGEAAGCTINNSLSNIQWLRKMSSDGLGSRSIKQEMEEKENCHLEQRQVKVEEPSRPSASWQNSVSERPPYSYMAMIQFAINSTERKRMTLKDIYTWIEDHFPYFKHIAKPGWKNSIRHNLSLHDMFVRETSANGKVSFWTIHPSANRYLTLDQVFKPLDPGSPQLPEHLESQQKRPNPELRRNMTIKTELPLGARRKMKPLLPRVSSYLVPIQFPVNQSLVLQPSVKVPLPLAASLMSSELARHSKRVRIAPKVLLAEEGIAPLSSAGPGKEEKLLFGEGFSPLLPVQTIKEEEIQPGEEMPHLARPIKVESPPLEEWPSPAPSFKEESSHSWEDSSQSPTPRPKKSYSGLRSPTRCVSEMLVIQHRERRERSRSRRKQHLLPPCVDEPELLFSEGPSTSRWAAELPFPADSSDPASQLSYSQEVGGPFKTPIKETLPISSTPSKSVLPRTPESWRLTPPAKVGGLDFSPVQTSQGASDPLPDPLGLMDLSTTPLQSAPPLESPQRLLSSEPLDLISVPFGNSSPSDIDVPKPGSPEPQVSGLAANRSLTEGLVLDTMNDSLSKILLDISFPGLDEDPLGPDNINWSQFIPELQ

human tumor types = conditions: in vivo, wide range of human tumor types (Pan et al. 2008)
patients [8] = conditions: phase I; dose levels well below those which cause dose-limiting toxicity (ASCO 2008 abstract #3009)
cells = conditions: reviewed in Agnese et al. 2007
[9] = tested on: leukemia, colon and pancreatic tumors
melanoma cells = conditions: in vitro (Ghosh et al. 2005)

For `COc1cc2c(Nc3ccc(NC(=O)c4ccccc4)cc3)ncnc2cc1OCCCN1CCOCC1` [ZM 447439], the toxicities (patients [1]) is listed as “tolerable toxicities”.

In the case of `CCN(CCCOc1ccc2c(Nc3cc(CC(=O)Nc4cccc(F)c4)n[nH]3)ncnc2c1)CCOP(=O)(O)O` [AD1152], the toxicity (patients [2]; phase I) is listed as “neutropenia as the only significant toxicity” and the “patients with significant disease stabilization” value (patients [2]; phase I (ASCO 2008 abstract #3008)) is listed as 5 of 12.

In the case of `COc1cc(Nc2ncc3c(n2)-c2ccc(Cl)cc2C(c2c(F)cccc2OC)=NC3)ccc1C(=O)O` [MLN8237], the “mitotic accumulation and apoptosis in xenografts” value [3] is listed as “induced mitotic accumulation and apoptosis”, the “tolerability of efficacious doses” value [3] is listed as “well tolerated doses” and the tumor growth [3] is listed as “dramatic tumor growth inhibition in all tumor models evaluated”. For the same molecule, the “accumulation of mitotic cells” value ([3]; single oral administration) was “time dependent accumulation of mitotic cells”, the “aurora B inhibition” value (aurora B) was “did not appreciably inhibit aurora B” and the “effects on cultured human tumor cells” value [4] was “mitotic spindle abnormalities, mitotic accumulation, inhibition of cell proliferation and apoptosis”. The pharmacokinetic profile [5] was “favorable pharmacokinetic profile” and the oral bioavailability ([5]; po) was “orally bioavailable”.

For `COCC[n+]1c2c(n(Cc3cnccn3)c1C)C(=O)c1ccccc1C2=O.[Br-]` [YM155], the toxicity (solid tumors; phase I) is given as “tolerable toxicity” and the clinical activity (solid tumors; phase I (2008 abstracts #3536, 5135, 8538)) is given as “clinical activity in solid tumors”.

For `CO[C@@H](C(=O)N1Cc2n[nH]c(NC(=O)c3ccc(N4CCN(C)CC4)cc3)c2C1)c1ccccc1` [PHA-739358], the toxicities (patients [1]) is given as “tolerable toxicities”.

For `CC(=O)NCC(=O)N1[C@@H]2CC[C@H]1c1ccc(Nc3ncc(C(F)(F)F)c(NC4CCC4)n3)cc12` [PF-03814735], the toxicities (patients [1]) is listed as “tolerable toxicities”.

For `O=C(O)c1ccc(Nc2ncc3c(n2)-c2ccc(Cl)cc2C(c2c(F)cccc2F)=NC3)cc1` [MLN8054], the “duration of tumor growth inhibition” value ([3]; after end of treatment) is given as “sustained after discontinuing MLN8054 treatment”, the “mitotic accumulation and apoptosis in xenografts” value [3] is given as “induced mitotic accumulation and apoptosis” and the “tolerability of efficacious doses” value [3] is given as “well tolerated doses”. For the same molecule, the tumor growth [3] was “dramatically inhibited”, the “effects on cultured human tumor cells” value [4] was “G2/M accumulation and spindle defects and inhibits proliferation” and the “Aurora A kinase activity” value (Aurora A [6]) was “inhibits recombinant Aurora A kinase activity”. For the same molecule, the “selectivity Aurora A over Aurora B” value (Aurora A [7]) was “selective for Aurora A over the family member Aurora B” and the toxicities (patients [1]) was “tolerable toxicities”.

In the case of `O=C(Nc1cccc(Cl)c1)Nc1ncc(CCNc2ncnc3ccsc23)s1` [SNS-314], the toxicities (patients [1]) is listed as “tolerable toxicities”.

In the case of “(D-Arg)9-p19ARF 26-44: small peptide that blocks FOXM1; rrrrrrrrrrKFVRSRRPRTAS-CALAFVN containing nine D-Arg residues at the amino terminus ([dR][dR][dR][dR][dR][dR][dR][dR][dR]KFVRSRRPRTASCALAFVN; not fully specified; printed as rrrrrrrrrrKFVRSRRPRTAS-CALAFVN; UniProt Q64364 26-44, looked up, fragment)”, the “action on FOXM1” value (FOXM1; Gusarova et al. 2007) is given as “blocks FOXM1” and the “effects in vitro and in vivo” value (FOXM1; both in vitro and in vivo) is given as “growth inhibition, reduction in levels of survivin, aurora B kinase, and PLK1 as well as inducing apoptosis”.

For `Cc1cc(Nc2ncc(F)c(NC3C4C=CC(C4)C3C(N)=O)n2)ccc1N1CCN(C)CC1` (stereo not shown) [AS703569], the toxicities (patients [1]) is given as “tolerable toxicities”.

For `Cc1cc(Nc2cc(N3CCN(C)CC3)nc(Sc3ccc(NC(=O)C4CC4)cc3)n2)[nH]n1` [VX-680], the “cell-cycle progression and apoptosis” value (human tumor types) is listed as “blocks cell-cycle progression and induces apoptosis”, the “patients who achieved stable disease” value (patients [8]) is listed as “three of 16” and the “effect on cell proliferation, spindle formation, DNA copies, cell death” value (cells) is listed as “block cell proliferation, disrupt bipolar spindle formation, and lead to accumulation of cells with 4N or greater numbers of chromosomal DNA copies and eventual cell death”. The “tolerability of efficacious doses” value ([9]; xenograft models) was “well-tolerated doses”, the tumor regression ([9]; xenograft models) was “regression of leukemia, colon and pancreatic tumors” and the tumor growth ([9]; xenograft models (Harrington et al. 2004)) was “substantial inhibition of tumor growth”.

In the case of `C=CCc1ccc(O)c(OC)c1` [Eugenol], the “E2F1 targeting and killing of melanoma cells” value (melanoma cells) is given as “target E2F1 and kill melanoma cells”.
